Data reported in patent publication US11304934B2, “Use of isoxazoline derivatives for the treatment or prevention of arthropod infestations in poultry” (Intervet Inc., priority 2013, dated 2022).

What was measured:
[1] = tested on: Dermanyssus gallinae; assay: Efficacy of fluralaner via medicated drinking water against artificially induced poultry red mite infestations of laying hens; assay type: in vivo; settings: for % Inhibition of mites 24 hours after infestation / % Mortality of mites 24 hours after infestation: laying hens
Experimental: (§1) Groups A-D (n=6) were treated with doses of 2, 1 and 0.5 mg fluralaner/kg BW once or 1 mg fluralaner/kg BW split dose (0.5 mg/kg BW on 2 occasions).
Drinking water consumption in each was measured on three days prior to administration to calculate the average daily water consumption. Medicated water was prepared by diluting a fluralaner solution (10 mg/mL) as shown in the table below to the calculated fluralaner concentration.
(§2) On D0 (group D additionally on D7), the hens in groups A-D received fluralaner via medicated drinking water. Group E received un-medicated drinking water ad libitum.
The dose to be administered was calculated based on average body weights of each treatment group, obtained one day before treatment (D-1, D6). A fluralaner stock solution was diluted in the drinking water to prepare medicated water ready for consumption.
The volume of medicated water offered per group on D0 (group D also on D7) was approximately 50% of the calculated mean daily water intake measured previously in the respective group in order to ensure consumption of the full dose.
Once all medicated water was consumed the other 50% volume of the mean daily water intake was supplied as tap water in the same drinker.
On Day 1, Day 5, Day 8, Day 12, D15, D19 and D22 four of six hens per group were infested with approximately 200 vital, D. gallinae mites (unfed nymphs and adults that starved before infestation for 7 days).
From each infested hen approximately 25 engorged mites were collected and incubated for approximately 24 hours. The dead, damaged and/or live mites were counted visually using a binocular.
Mites were classified as dead if no movement was determined or mites lay in a dorsal position. Mites were classified as damaged if their movement was uncoordinated.
The Mite Mortality and Mite Inhibition percentage was calculated for each treated group in comparison to a not-treated negative control group.

[2] = Tolerability of fluralaner via medicated drinking water in hens; assay type: in vivo, laying hens; settings: 2, 1, 0.5 mg/kg BW once or 2 × 0.5 mg/kg BW via medicated drinking water
Experimental: as §1, §2

[3] = Group A, 2 mg/kg BW once (D0) via drinking water, infestation on D1
[4] = Group A, 2 mg/kg BW once (D0) via drinking water, infestation on D5
[5] = Group A, 2 mg/kg BW once (D0) via drinking water, infestation on D8
[6] = Group A, 2 mg/kg BW once (D0) via drinking water, infestation on D12
[7] = Group A, 2 mg/kg BW once (D0) via drinking water, infestation on D15
[8] = Group A, 2 mg/kg BW once (D0) via drinking water, infestation on D19
[9] = Group A, 2 mg/kg BW once (D0) via drinking water, infestation on D22
[10] = Group B, 1 mg/kg BW once (D0) via drinking water, infestation on D1
[11] = Group B, 1 mg/kg BW once (D0) via drinking water, infestation on D5
[12] = Group B, 1 mg/kg BW once (D0) via drinking water, infestation on D8
[13] = Group B, 1 mg/kg BW once (D0) via drinking water, infestation on D12
[14] = Group B, 1 mg/kg BW once (D0) via drinking water, infestation on D15
[15] = Group B, 1 mg/kg BW once (D0) via drinking water, infestation on D19
[16] = Group B, 1 mg/kg BW once (D0) via drinking water, infestation on D22
[17] = Group C, 0.5 mg/kg BW once (D0) via drinking water, infestation on D1
[18] = Group C, 0.5 mg/kg BW once (D0) via drinking water, infestation on D5
[19] = Group C, 0.5 mg/kg BW once (D0) via drinking water, infestation on D8
[20] = Group C, 0.5 mg/kg BW once (D0) via drinking water, infestation on D12
[21] = Group C, 0.5 mg/kg BW once (D0) via drinking water, infestation on D15
[22] = Group C, 0.5 mg/kg BW once (D0) via drinking water, infestation on D19
[23] = Group C, 0.5 mg/kg BW once (D0) via drinking water, infestation on D22
[24] = Group D, 1 (2 × 0.5) mg/kg BW split dose on D0 and D7 via drinking water, infestation on D1
[25] = Group D, 1 (2 × 0.5) mg/kg BW split dose on D0 and D7 via drinking water, infestation on D5
[26] = Group D, 1 (2 × 0.5) mg/kg BW split dose on D0 and D7 via drinking water, infestation on D8
[27] = Group D, 1 (2 × 0.5) mg/kg BW split dose on D0 and D7 via drinking water, infestation on D12
[28] = Group D, 1 (2 × 0.5) mg/kg BW split dose on D0 and D7 via drinking water, infestation on D15
[29] = Group D, 1 (2 × 0.5) mg/kg BW split dose on D0 and D7 via drinking water, infestation on D19
[30] = Group D, 1 (2 × 0.5) mg/kg BW split dose on D0 and D7 via drinking water, infestation on D22

With Cc1cc(C2=NOC(c3cc(Cl)cc(Cl)c3)(C(F)(F)F)C2)ccc1C(=O)NCC(=O)NCC(F)(F)F (stereo not shown) [fluralaner, 4-[5-(3,5-Dichlorophenyl)-5-trifluoromethyl-4,5-dihydroisoxazol-3-yl]-2-methyl-N-[(2,2,2-trifluoro-ethylcarbamoyl)-methyl]-benzamide] the “% Inhibition of mites 24 hours after infestation” value (from here on “% Inhibition of mites 24 hours”) [1, 3] was 100%, the “% Mortality of mites 24 hours after infestation” value (“% Mortality of mites 24 hours” below) [1, 3] was 100% and the “% Inhibition of mites 24 hours” value [1, 4] was 100%. For the same molecule, the “% Mortality of mites 24 hours” value [1, 4] was 100%, the “% Inhibition of mites 24 hours” value [1, 5] was 100% and the “% Mortality of mites 24 hours” value [1, 5] was 100%. The “% Inhibition of mites 24 hours” value [1, 6] was 100%, the “% Mortality of mites 24 hours” value [1, 6] was 100% and the “% Inhibition of mites 24 hours” value [1, 7] was 81%. The “% Mortality of mites 24 hours” value [1, 7] was 77%, the “% Inhibition of mites 24 hours” value [1, 8] was 14% and the “% Mortality of mites 24 hours” value [1, 8] was 1%. The “% Inhibition of mites 24 hours” value [1, 9] was 0%, the “% Mortality of mites 24 hours” value [1, 9] was 0% and the “% Inhibition of mites 24 hours” value [1, 10] was 100%. The “% Mortality of mites 24 hours” value [1, 10] was 100%, the “% Inhibition of mites 24 hours” value [1, 11] was 100% and the “% Mortality of mites 24 hours” value [1, 11] was 100%. The “% Inhibition of mites 24 hours” value [1, 12] was 100%, the “% Mortality of mites 24 hours” value [1, 12] was 100% and the “% Inhibition of mites 24 hours” value [1, 13] was 95%. The “% Mortality of mites 24 hours” value [1, 13] was 94%, the “% Inhibition of mites 24 hours” value [1, 14] was 81% and the “% Mortality of mites 24 hours” value [1, 14] was 77%. The “% Inhibition of mites 24 hours” value [1, 15] was 3%, the “% Mortality of mites 24 hours” value [1, 15] was 2% and the “% Inhibition of mites 24 hours” value [1, 16] was 0%. For the same molecule, the “% Mortality of mites 24 hours” value [1, 16] was 0%, the “% Inhibition of mites 24 hours” value [1, 17] was 100% and the “% Mortality of mites 24 hours” value [1, 17] was 100%. The “% Inhibition of mites 24 hours” value [1, 18] was 100%, the “% Mortality of mites 24 hours” value [1, 18] was 100% and the “% Inhibition of mites 24 hours” value [1, 19] was 100%. The “% Mortality of mites 24 hours” value [1, 19] was 97%, the “% Inhibition of mites 24 hours” value [1, 20] was 75% and the “% Mortality of mites 24 hours” value [1, 20] was 55%. For the same molecule, the “% Inhibition of mites 24 hours” value [1, 21] was 19%, the “% Mortality of mites 24 hours” value [1, 21] was 15% and the “% Inhibition of mites 24 hours” value [1, 22] was 0%. The “% Mortality of mites 24 hours” value [1, 22] was 0%, the “% Inhibition of mites 24 hours” value [1, 23] was 0% and the “% Mortality of mites 24 hours” value [1, 23] was 0%. The “% Inhibition of mites 24 hours” value [1, 24] was 100%, the “% Mortality of mites 24 hours” value [1, 24] was 100% and the “% Inhibition of mites 24 hours” value [1, 25] was 100%. For the same molecule, the “% Mortality of mites 24 hours” value [1, 25] was 100%, the “% Inhibition of mites 24 hours” value [1, 26] was 100% and the “% Mortality of mites 24 hours” value [1, 26] was 100%. For the same molecule, the “% Inhibition of mites 24 hours” value [1, 27] was 100%, the “% Mortality of mites 24 hours” value [1, 27] was 100% and the “% Inhibition of mites 24 hours” value [1, 28] was 99%. For the same molecule, the “% Mortality of mites 24 hours” value [1, 28] was 98%, the “% Inhibition of mites 24 hours” value [1, 29] was 66% and the “% Mortality of mites 24 hours” value [1, 29] was 59%. The “% Inhibition of mites 24 hours” value [1, 30] was 27%, the “% Mortality of mites 24 hours” value [1, 30] was 14% and the “Onset of action against red mites” value ([1]; all administered doses, orally via drinking water) was “fast onset of action”. The Tolerability in hens [2] was “well tolerated”.
